Key:
[1] = target: T1, cloned canine GHSR (Canis lupus familiaris, UniProt A5HKU8); experiment: [35S]-MK-677 competition binding, cloned canine GHSR membranes; conditions: competition with 35S-MK-677, crude membranes of transfected COS-7 or HEK-293 cells, 20° C., 1 hr
T1 construct: full-length open reading frame placed in the mammalian expression vector pcDNA-3; expressed in transfected cells; host or cells: COS-7 or HEK-293 (crude membranes)
Method: Expression of the canine -GHSR was monitored using a [^35S]-MK-677 binding assay conducted on cells transfected with a canine GHSR expression plasmid (full-length open reading frame placed in the mammalian expression vector pcDNA-3). Mammalian cells (COS-7, HEK-293) were transfected with GHSR expression plasmids using Lipofectamine (GIBCO-BRL; Hawley-Nelson, 1993, Focus 15:73). Transfections were performed in 60 mm dishes on 80% confluent cells (approximately 4×10^5cells) with 8 μg of Lipofectamine and 32 μg of GHSR plasmid DNA.
Binding of ^35S-MK-677 to crude membranes prepared from COS-7 or HEK-293 cells transfected with GHSR expression plasmids was conducted. Crude cell membranes from COS-7 transfectants were prepared on ice, 48 hrs post-transfection. Each 60 mm dish was washed twice with 3 ml of PBS, once with 1 ml homogenization buffer (50 mM Tris-HCl (pH 7.4), 5 mM MgCl2, 2.5 mM EDTA, 30 μg/ml bacitracin). 0.5 ml of homogenization buffer was added to each dish, cells were removed by scraping and then homogenized using a POLYTRON device (Brinkmann, Syosset, N.Y.; 3 bursts of 10 seconds at setting 4). […] After application of the membrane suspension to the filter, the filters were washed 3 times with 3 ml each of ice cold 50 mM Tris-HCl (pH 7.4), 10 mM MgCl2, 2.5 mM-EDTA, and 0.015% Triton X-100, and the bound radioactivity on the filters was quantitated by scintillation counting.

[2] = target: T2, native canine pituitary GHSR (Canis lupus familiaris, UniProt A5HKU8); experiment: [35S]-MK-677 competition binding, native canine pituitary GHSR; conditions: comparison value
T2 construct: native canine pituitary GHSR; from tissue; host or cells: canine pituitary
T2 sequence (A5HKU8 1-349): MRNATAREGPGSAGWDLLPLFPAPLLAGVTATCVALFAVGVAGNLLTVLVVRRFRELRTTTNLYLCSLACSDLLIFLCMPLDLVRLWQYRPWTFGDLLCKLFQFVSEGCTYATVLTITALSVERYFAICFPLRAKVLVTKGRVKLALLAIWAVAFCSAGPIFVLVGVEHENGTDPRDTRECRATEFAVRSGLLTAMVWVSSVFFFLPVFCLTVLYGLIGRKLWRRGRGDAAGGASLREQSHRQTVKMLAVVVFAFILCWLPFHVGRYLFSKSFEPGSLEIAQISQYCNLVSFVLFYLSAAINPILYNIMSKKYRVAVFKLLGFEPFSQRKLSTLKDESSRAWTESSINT

T1 sequence (A5HKU8 1-349): as above

Structure (SMILES): CC(C)(N)C(=O)N[C@H](COCc1ccccc1)C(=O)N1CCC2(CC1)CN(S(C)(=O)=O)c1ccccc12 [MK-677]
- IC50 [1]: 2.2 nM
- IC50 [2]: 1 nM
